# Laboratory results from ChEMBL document CHEMBL5154723 (Bioorg Med Chem, 2022).
# Experiment: Inhibition of Influenza A virus H5N1 neuraminidase
row,Compound,IC50 [nM]
1,O=C(CSc1nnc(-c2ccc(F)cc2)o1)NCc1ccc(Cl)c(Cl)c1,450
2,COc1cccc(CCNC(=O)CSc2nnc(-c3ccccc3)o2)c1,260
3,O=C(CSc1nnc(-c2ccccc2)o1)NCc1ccc(Cl)c(Cl)c1,130
4,Cc1cc([N+](=O)[O-])ccc1NC(=O)CSc1nnc(COc2ccc3ccccc3c2)o1,6150
5,Cc1ccc(-c2nnc(SCC(=O)NCc3ccc(Cl)c(Cl)c3)o2)cc1,2050
6,O=C(CSc1nnc(-c2ccccc2)o1)NCCc1cccc(F)c1,3580
7,COc1ccc(-c2nnc(SCC(=O)NCc3ccc(Cl)c(Cl)c3)o2)cc1,3950
8,COc1cccc(CCNC(=O)CSc2nnc(-c3ccc(C)cc3)o2)c1,150000
9,O=C(CSc1nnc(-c2ccc(O)cc2)o1)NCc1ccc(Cl)c(Cl)c1,1180
10,O=C(CSc1nnc(-c2ccc(Cl)cc2)o1)NCc1ccc(Cl)c(Cl)c1,32
11,O=C(CSc1nnc(-c2ccc(O)cc2)o1)NCCc1cccc(F)c1,27
12,COc1cccc(CCNC(=O)CSc2nnc(-c3ccc(F)cc3)o2)c1,56700
13,COc1cccc(CCNC(=O)CSc2nnc(-c3ccc(O)cc3)o2)c1,360
14,CCC(CC)O[C@@H]1C=C(C(=O)O)C[C@H](N)[C@H]1NC(C)=O [OSELTAMIVIR CARBOXYLATE],82
